Results from the supplement of paper PMC10307832.

Legend:
[1] = compound: N[C@@H]1CCCN(c2c(/C=C3\SC(=O)NC3=O)cccc2-c2ccccc2)C1 [AZD1208]; experiment: relative viability (nuclei count vs DMSO), 5 days (fraction); higher = more cells survive
How it was run: (§1)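 Vehicle-anchored 1536-well plates of lung cancer cell lines, held overnight at 37 °C, were pinned with five library-drug doses (not always all listed) spaced by √10. No medium change followed over the next 5 days, after which the cells were fixed, permeabilised and Hoechst-stained together and imaged at 4×. Nuclei were counted with MetaXpress, and viability is treated-well nuclei over vehicle-well nuclei, taken as a median across plates. Plates passed with control CV below 25% and at least one doubling.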

[2] = compound: CN1CCN(CC1)C2=CC(=C(C=C2)NC3=NC(=C(S3)C(=O)C4=C(C=CC=C4Cl)Cl)N)OC [XMD14-99]; experiment: as above
How it was run: as §1

Cell Line	relative viability ([1]; 0.08 µM)	relative viability ([1]; 0.253 µM)	relative viability ([1]; 0.8 µM)	relative viability ([1]; 2.53 µM)	relative viability ([1]; 8 µM)	relative viability ([2]; 0.08 µM)	relative viability ([2]; 0.8 µM)	relative viability ([2]; 2.53 µM)	relative viability ([2]; 8 µM)
NCI-H1755	0.988	1.07	0.952	0.983	0.792	0.996	0.974	1.01	0.784
NCI-H1792	1.08	1.05	0.646	0.954	0.664	1.02	0.879	0.818	0.471
NCI-H1793	1.02	1.2	0.794	1.01	0.673	0.881	0.892	0.839	0.688
NCI-H1915	0.995	1.06	0.967	0.875	0.979	0.991	0.958	0.91	0.796
NCI-H1944	0.963	0.898	0.861	0.822	0.639	0.906	0.917	0.817	0.809
NCI-H1975	1.06	1.08	0.909	1.04	0.878	0.992	0.994	0.917	0.788
NCI-H1993	0.931	0.779	0.808	0.818	0.733	0.89	0.987	0.872	0.806
NCI-H2009	1.03	1.07	1.01	0.975	1	0.987	1.03	0.887	0.804
NCI-H2023	0.863	1.01	0.86	0.867	0.769	0.961	0.875	0.953	0.71
